Results from ChEMBL document CHEMBL1127835, “Structure-activity relationships of N6-benzyladenosine-5'-uronamides as A3-selective adenosine agonists” (J Med Chem, 1994).

Assays:
[1] = molecular target: T1, Adenosine receptor A3 (Rattus norvegicus, UniProt P28647)
T1 sequence (P28647 whole entry): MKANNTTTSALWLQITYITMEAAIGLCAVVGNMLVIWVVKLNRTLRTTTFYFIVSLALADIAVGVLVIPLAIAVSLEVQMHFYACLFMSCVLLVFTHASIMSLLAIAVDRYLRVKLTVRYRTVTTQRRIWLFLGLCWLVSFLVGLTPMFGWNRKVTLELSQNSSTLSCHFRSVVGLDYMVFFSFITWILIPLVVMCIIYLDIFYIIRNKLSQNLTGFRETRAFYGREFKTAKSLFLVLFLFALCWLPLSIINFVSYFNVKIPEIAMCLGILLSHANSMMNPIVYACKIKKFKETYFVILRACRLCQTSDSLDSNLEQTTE
Description: Binding affinity for recombinant rat A3-adenosine receptor by the displacement of specific [125I]APNEA or [125I]-N6-(4-amino-3-iodobenzyl)-adenosine-5'-N-methyluronamide

[2] = molecular target: Adenosine A2 receptor (Rattus norvegicus, UniProt P29276+P30543)
Description: Binding affinity for A2-adenosine receptor by the displacement of specific [3H]-CGS- binding in rat striatal membranes was determined

[3] = molecular target: T2, Adenosine receptor A1 (Rattus norvegicus, UniProt P25099); assay: biochemical
T2 sequence (P25099 whole entry): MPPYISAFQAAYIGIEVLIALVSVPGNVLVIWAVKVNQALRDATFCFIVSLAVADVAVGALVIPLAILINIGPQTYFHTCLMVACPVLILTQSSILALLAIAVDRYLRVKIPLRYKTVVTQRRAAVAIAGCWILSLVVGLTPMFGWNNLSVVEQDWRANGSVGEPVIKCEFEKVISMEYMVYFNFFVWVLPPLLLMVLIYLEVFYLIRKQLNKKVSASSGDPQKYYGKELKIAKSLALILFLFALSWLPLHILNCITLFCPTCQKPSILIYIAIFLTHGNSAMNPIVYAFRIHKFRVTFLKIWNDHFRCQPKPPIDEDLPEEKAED
Description: Binding affinity for A1-adenosine receptor by the displacement of specific [3H]-PIA binding in rat brain was determined

[4] = Ratio of binding affinities for A2 receptor compared to that of A3 receptor
[5] = molecular target: T1, Adenosine receptor A3; assay: biochemical
Description: Binding affinity for rat A3-adenosine receptor expressed in chinese hamster ovarian cells (assayed by the displacement of specific [125I]-N6-(4-amino-3-iodobenzyl)-adenosine-5''-N-methyluronamide)

[6] = molecular target: T3, Adenosine A2 receptor (Rattus norvegicus) (UniProt P29276+P30543); assay: Percentage inhibition of [3H]-CGS- 21680 binding to […] receptor in rat brain at 10e-5 nM; format: tissue-based
[7] = molecular target: T4, Adenosine receptor A1 (Rattus norvegicus) (UniProt P25099); assay: Percentage inhibition against [3H]PIA binding to A1-adenosine receptor in rat brain at 10e-5 nM; format: tissue-based
T4 sequence (whole entry): T2 sequence (P25099 whole entry)

[8] = molecular target: T4, Adenosine receptor A1 (Rattus norvegicus); conditions: Brain, 10e-5 nM
[9] = molecular target: T3, Adenosine A2 receptor (Rattus norvegicus); conditions: Brain, 10e-5 nM
Description: Percentage inhibition against [3H]-CGS- 21680 binding to A1-adenosine receptor in rat brain at 10e-5 nM

[10] = molecular target: T3, Adenosine A2 receptor (Rattus norvegicus); assay: Percentage inhibition of [3H]-CGS- 21680 binding to […] receptor in rat brain at 10e-4 nM; format: tissue-based
[11] = molecular target: T4, Adenosine receptor A1 (Rattus norvegicus); assay: Percentage inhibition against [3H]-PIA binding to A1-adenosine receptor in rat brain at 10e-4 nM; format: tissue-based
[12] = molecular target: T3, Adenosine A2 receptor (Rattus norvegicus); assay: Percentage inhibition against [3H]-CGS- 21680 binding to A2-adenosine receptor in rat brain at 1xe-4 nM; format: tissue-based
[13] = molecular target: T4, Adenosine receptor A1 (Rattus norvegicus); assay: Percentage inhibition against [3H]PIA binding to A1-adenosine receptor in rat brain at 1xe-4 nM; format: tissue-based

SMILES | Ki [2] [nM] | Ki [3] [nM] | Ratio [4] | further results
CCNC(=O)[C@H]1O[C@@H](n2cnc3c(N)[n+](Cc4ccc([N+](=O)[O-])cc4)cnc32)[C@H]([O-])[C@@H]1O | 190 | 341 | 3.2 | Ki [1]: 60 nM
CCNC(=O)[C@H]1O[C@@H](n2cnc3c(N[C@H](C)c4ccccc4)ncnc32)[C@H](O)[C@@H]1O | 259 | – | 14 | –
CCNC(=O)[C@H]1O[C@@H](n2cnc3c(NCc4ccccc4OC)ncnc32)[C@H](O)[C@@H]1O | 21 | – | 3 | –
CNC(=O)[C@H]1OC(n2cnc3c(NCc4ccc(Cl)cc4)ncnc32)[C@H](O)[C@@H]1O (stereo partly specified) | 2730 | 478 | 160 | Ki [5]: 17 nM
CC(C)(C)OC(=O)NCCNC(=O)[C@H]1O[C@@H](n2cnc3c(N)ncnc32)[C@H](O)[C@@H]1O | – | – | > 1 | inhibition [6]: 0%; inhibition [7]: 0%
NCCNC(=O)[C@H]1O[C@@H](n2cnc3c(N)ncnc32)[C@H](O)[C@@H]1O | – | – | > 1 | inhibition [8]: 0%; inhibition [9]: 12.5%
CCNC(=O)[C@H]1O[C@@H](n2cnc3c(NCc4ccccc4[N+](=O)[O-])ncnc32)[C@H](O)[C@@H]1O | 24 | – | 8.6 | –
CCNC(=O)[C@H]1OC(n2cnc3c(NCc4cccc(Br)c4)ncnc32)[C@H](O)[C@@H]1O (stereo partly specified) | – | 10.9 | – | Ki [5]: 2.8 nM
CCNC(=O)[C@H]1O[C@@H](n2cnc3c(NCc4cccc([N+](=O)[O-])c4)ncnc32)[C@H](O)[C@@H]1O | 35 | – | 4 | –
CNC(=O)[C@H]1OC(n2cnc3c(NCc4cccc(S(=O)(=O)O)c4)ncnc32)[C@H](O)[C@@H]1O (stereo partly specified) | 9070 | 19600 | 6.9 | Ki [5]: 1310 nM
CNC(=O)[C@H]1OC(n2cnc3c(NCc4cccc(C(F)(F)F)c4)ncnc32)[C@H](O)[C@@H]1O (stereo partly specified) | 574 | 496 | 19 | Ki [5]: 31 nM
NC(=O)[C@H]1O[C@@H](n2cnc3c(NCc4ccccc4)ncnc32)[C@H](O)[C@@H]1O | 423 | – | 1.7 | –
CCNC(=O)[C@H]1O[C@@H](n2cnc3c(NCc4cccc(F)c4)ncnc32)[C@H](O)[C@@H]1O | 32 | – | 3 | –
CCNC(=O)[C@H]1O[C@@H](n2cnc3c(NCc4cccc(OC)c4)ncnc32)[C@H](O)[C@@H]1O | 38 | – | 8.8 | –
CCNC(=O)[C@H]1O[C@@H](n2cnc3c(NCc4ccc(OC)cc4)ncnc32)[C@H](O)[C@@H]1O | 609 | – | 55 | –
CCNC(=O)[C@H]1O[C@@H](n2cnc3c(NCc4cccc(I)c4)ncnc32)[C@H](O)[C@@H]1O | 7.2 | – | 8.2 | –
CNC(=O)[C@H]1OC(n2cnc3c(NCc4cccc([N+](=O)[O-])c4)ncnc32)[C@H](O)[C@@H]1O (stereo partly specified) | 441 | 735 | 23 | Ki [5]: 19 nM
CCNC(=O)[C@H]1OC(n2cnc3c(N[C@@H](C)c4ccccc4)ncnc32)[C@H](O)[C@@H]1O (stereo partly specified) | 1650 | 65 | 3.3 | Ki [5]: 494 nM
CCNC(=O)[C@H]1OC(n2cnc3c(=O)[nH]cnc32)[C@H](O)[C@@H]1O (stereo partly specified) | – | – | – | Ki [1]: 5000 nM
CNC(=O)[C@H]1O[C@@H](n2cnc3c(O)ncnc32)[C@H](O)[C@@H]1O | – | – | > 10 | inhibition [10]: 6.2%; inhibition [11]: 0%

SMILES | Ki [2] [nM] | Ki [3] [nM] | Ratio [4] | further results
CNC(=O)[C@H]1O[C@@H](n2cnc3c(NCc4ccc(N)c(I)c4)ncnc32)[C@H](O)[C@@H]1O | 197 | 18 | – | –
CNC(=O)[C@H]1O[C@@H](n2cnc3c(NCc4cccc(C)c4)ncnc32)[C@H](O)[C@@H]1O | 415 | – | 42 | –
CCNC(=O)[C@H]1OC(n2cnc3c(O)ncnc32)[C@H](O)[C@@H]1O (stereo partly specified) | – | – | > 1 | inhibition [10]: 31%; inhibition [11]: 44%
CCNC(=O)[C@H]1O[C@@H](n2cnc3c(NCc4cccc(C)c4)ncnc32)[C@H](O)[C@@H]1O | 17.7 | – | 15 | –
O=C(NC1CC1)[C@H]1OC(n2cnc3c(NCc4ccccc4)ncnc32)[C@H](O)[C@@H]1O (stereo partly specified) | 55 | 112 | 0.53 | Ki [1]: 103 nM
CCNC(=O)[C@H]1O[C@@H](n2cnc3c(N)[n+](Cc4ccccc4[N+](=O)[O-])cnc32)[C@H](O)[C@@H]1[O-] | 83.5 | 196 | 3.1 | Ki [1]: 27 nM
CNC(=O)[C@H]1O[C@@H](n2cnc3c(NCc4cccc(Cl)c4)ncnc32)[C@H](O)[C@@H]1O | 559 | 916 | 25 | Ki [1]: 21.9 nM
CNC(=O)[C@H]1O[C@@H](n2cnc3c(NCc4ccccc4)ncnc32)[C@H](O)[C@@H]1O | 597 | – | 37 | –
CNC(=O)[C@H]1O[C@@H](n2cnc3c(NCc4cccc(Br)c4)ncnc32)[C@H](O)[C@@H]1O | 64 | – | 34 | Ki [5]: 1.9 nM
CNC(=O)[C@H]1OC(n2cnc3c(NCc4ccc(Br)cc4)ncnc32)[C@H](O)[C@@H]1O (stereo partly specified) | 2460 | 516 | 200 | Ki [5]: 12 nM
CCNC(=O)[C@H]1O[C@@H](n2cnc3c(NCc4cccc(Cl)c4)ncnc32)[C@H](O)[C@@H]1O | 19 | – | 17 | –
CNC(=O)[C@H]1OC(n2cnc3c(NCc4ccc(S(=O)(=O)O)cc4)ncnc32)[C@H](O)[C@@H]1O (stereo partly specified) | – | – | > 100 | Ki [5]: 4500 nM; inhibition [12]: 0%; inhibition [13]: 0%
CNC(=O)[C@H]1OC(n2cnc3c(NCc4ccc(N)cc4)ncnc32)[C@H](O)[C@@H]1O (stereo partly specified) | 1590 | – | 110 | –
CCNC(=O)[C@H]1O[C@@H](n2cnc3c(NCc4ccccc4)ncnc32)[C@H](O)[C@@H]1O | 95 | – | 14 | –
CCNC(=O)[C@H]1O[C@@H](n2cnc3c(NCc4ccc([N+](=O)[O-])cc4)ncnc32)[C@H](O)[C@@H]1O | – | – | 64 | –
CNC(=O)[C@H]1OC(n2cnc3c(NCc4cccc(N)c4)ncnc32)[C@H](O)[C@@H]1O (stereo partly specified) | 794 | 1000 | 28 | Ki [5]: 28 nM
CNC(=O)[C@H]1OC(n2cnc3c(NCc4cccc(NC(C)=O)c4)ncnc32)[C@H](O)[C@@H]1O (stereo partly specified) | 988 | 2970 | 24 | Ki [5]: 41.4 nM
CCNC(=O)[C@H]1OC(n2cnc3c(N)[n+]([O-])cnc32)[C@H](O)[C@@H]1O (stereo partly specified) | 101 | 154 | 0.22 | Ki [1]: 468 nM
NC(=O)[C@H]1OC(n2cnc3c(N)ncnc32)[C@H](O)[C@@H]1O (stereo partly specified) | 120 | 72.6 | 0.085 | Ki [1]: 1410 nM
